Experimental findings from article PMC4859512, “Polyamino-Isoprenic Derivatives Block Intrinsic Resistance of P. aeruginosa to Doxycycline and Chloramphenicol In Vitro” (PLoS ONE, 2016) are described below.

Series [1] deals with CHO-K1 cells. Briefly: cells. The format is cell-based, Chinese Hamster. To be noted: for IC50: Cricetulus griseus, CHO-K1, WST1, 24 h, mean +/- SD, 2 independent experiments. The method, then: (§1) CHO-K1 cells (ATCC-LGC Standards Sarl (Molsheim, France) and human fibroblasts (Clinisciences, Paris, France) were maintained in McCoy’s 5A and DMEM media, respectively, supplemented with 10% bovine calf serum, 2 mM glutamine, and 100 U/mL/10 μg/mL penicillin/streptomycin. They were incubated at 37°C in a humidified atmosphere containing 5% CO2. The cell lines were seeded in 96-well plates and incubated overnight. The cytotoxic effects of compounds were assessed by the colorimetric WST-1 cell proliferation assay as previously described. Briefly, a range of compound concentrations from 30 μM to 1200 μM was added to triplicate cultures, and cells were incubated at 37°C for 24 h. At the end of the incubation period, cultures were washed three times with phosphate buffer saline (PBS) and incubated in fresh culture medium containing 10% WST-1 for an additional 30 min. Cell viability was evaluated by measuring the WST-1 absorbance at 450 nm in a microplate spectrophotometer MRX1 II (Dynex technologies, Chantilly, VA, USA). The Inhibitory Concentration 50% (IC50) was chosen to evaluate the cytotoxicity of compounds. IC50 was defined as the concentration of a compound that induced a 50% decrease in viable cells. Doxorubicin was used as a positive control.

Series [2] relates to P. aeruginosa PA01 (wt). Briefly: Antibiotic susceptibility testing (broth micro-dilution MIC), strain PA01. The format is cell-based, Pseudomonas aeruginosa. The settings on record: Pseudomonas aeruginosa, read-out: Minimal Inhibitory Concentration. The method, then:
(§2) Experiments were performed on the BAC-SCREEN platform of the UMR-MD1, with a Freedom EVO 150 liquid handling system (Tecan, Lyon, France).
(§3) The same experiment was performed using chloramphenicol (4 mg/L) in combination with 3 (10 μM final concentration). […] These experiments were performed to study the effect of our compounds on the natural resistance of P. aeruginosa. […] Experiments were performed with the ß-lactams ceftazidime and ticarcillin and ciprofloxacin and amikacin.

Series [3] concerns P. aeruginosa CMZ091 (Mex XY overproducer). Briefly: Antibiotic susceptibility testing (broth micro-dilution MIC), strain CMZ091. Type of series: cell-based, Pseudomonas aeruginosa. The settings on record: Pseudomonas aeruginosa, read-out: Minimal Inhibitory Concentration. How it is done: as §2
(§4) We concluded that compound 3 was the best compound and suitable for a more detailed study. The same experiment was performed using chloramphenicol (4 mg/L) in combination with 3 (10 μM final concentration). Amongst the 20 clinical isolates, the growth of 15 (75%) was impaired, while 5 (25%) were resistant (data not shown). These experiments were performed to study the effect of our compounds on the natural resistance of P. aeruginosa. In addition, we were wondering if compound 3 could also increase susceptibility to other antibiotic families including ß-Lactams, fluoroquinolones and aminoglycosides, that are representative of the main classes of anti-pseudomonal agents. Experiments were performed with the ß-lactams ceftazidime and ticarcillin and ciprofloxacin and amikacin. […] . […] To better characterize compound 3, we first searched for the minimum concentration of compound that allowed killing of bacteria by doxycycline, and PAßN was used as the reference molecule.

In series [4] the test system is P. aeruginosa PA0-7H (Mex EF overproducer). Briefly: Antibiotic susceptibility testing (broth micro-dilution MIC), strain PA0-7H. To be noted: Pseudomonas aeruginosa, read-out: Minimal Inhibitory Concentration. Type of series: cell-based, Pseudomonas aeruginosa. How it is done: as §2, §4
Series [5] deals with human fibroblasts. Briefly: WST-1 cytotoxicity test, fibroblasts. To be noted: for IC50: Homo sapiens, Fibroblast, WST1, 24 h, mean +/- SD, 2 independent experiments. The format is cell-based. The method, then: as §1
Series [6] concerns P. aeruginosa PT629 (Mex AB overproducer). Briefly: Antibiotic susceptibility testing (broth micro-dilution MIC), strain PT629. The format is cell-based, Pseudomonas aeruginosa. The settings on record: Pseudomonas aeruginosa, read-out: Minimal Inhibitory Concentration. How it is done: as §2, §4
For series [7], the system named is P. aeruginosa PA01 ERY^R (Mex CD overproducer). Briefly: microbe, parasite or virus in culture. Type of series: cell-based, Pseudomonas aeruginosa. To be noted: Pseudomonas aeruginosa, read-out: Minimal Inhibitory Concentration. The method, then: as §2, §3
Series [8] relates to P. aeruginosa FB1 (Mex B deleted). Briefly: Antibiotic susceptibility testing (broth micro-dilution MIC), strain FB1. The format is cell-based. The settings on record: Pseudomonas aeruginosa, read-out: Minimal Inhibitory Concentration. The method, then:
as §2

The subject of series [9] is twenty clinical isolates of P. aeruginosa. Briefly: Combined antibiotic / polyamino-isoprenic derivative on MH agar plates, clinical isolates. The format is cell-based, Pseudomonas aeruginosa. To be noted: doxycycline 2 mg/L + compound 10 μM; 20 clinical isolates. The method, then: MH agar plates were prepared, containing 2 mg/L doxycycline and 2 mg/L doxycycline in combination with compounds at a concentration of 10 μM. Bacteria, 5 μL of a suspension of each clinical isolate adjusted to 5 x 10^5 colony-forming units per ml were spotted on each plate and growth was monitored after a 18 h period of incubation at 37°C.
PA01 is a well-studied reference strain of P. aeruginosa, however to extend our study we considered strains recently isolated from hospitalized patients. Thus, we decided to test this combination of doxycycline (2mg/L) with polyamino-isoprenic compounds (10 μM) on twenty clinical isolates recently isolated from the HIA-Laveran (see M&M section and S1 Table).

The test system of series [10] is outer membrane of P. aeruginosa PA01. Briefly: Outer membrane permeation assay (nitrocefin hydrolysis). The settings on record: compound at 125μM, relative to 250 μM polymyxin-B.
Experimental: An overnight culture of PA01 was diluted 100-fold into 10 ml MHII broth containing 0.01 μg/ml of imipenem to induce a higher level of β-lactamases. […] Absorbance at 490 nm was monitored by spectrophotometry using an Infinite M200 microplate reader (Tecan) over 60 min. Experiments were performed in triplicate.
Series [11] has as its system efflux of 1,2'-dinaphthylamine in strain PA01. Briefly: Real-time efflux assay (1,2'-dinaphthylamine, glucose-triggered). Type of series: cell-based, Pseudomonas aeruginosa. How it is done: The experiments were performed as previously described with slight modifications. For each strain, 20 mL of MHII was inoculated with a single colony from a fresh plate and grown at 37°C to the stationary phase. […] They were then loaded over night with the dye 1,2’-dinaphthylamine (TCI-Europe SA, Zwijndrecht, Belgium) at a final concentration of 32 μM, in the presence of 5 μM CCCP. […] In a 96-well Greiner black microplate (Greiner, Courtaboeuf, France), a gradient of inhibitor (when used) was prepared in PPB, and bacteria were added (100 μL per well). The fluorescence of the cell suspension, was monitored each 22 sec during 1200 sec on an Infinite M200 microplate reader (Tecan; excitation wavelength 370 nm and emission wavelength 420 nm). In order to trigger the transport, glucose (50 mM final concentration) is added at 200 sec. The maximum efficacy of the efflux is the difference between the value obtained without and with glucose addition after 1200 sec. For each compound, the efficiency of efflux inhibition is calculated as the difference between the maximum efficacy of transport and the residual transport obtained at various concentrations of the compound.

The test system of series [12] is P. aeruginosa PA01 reference strain. Briefly: High-content screening in the presence of doxycycline. The settings on record: compound 10 μM, sub-inhibitory doxycycline.
Experimental: The screening was carried out in 96-well microtiter plates using MHBII, in a final volume of 200 μL. […] The bacterial inoculum of 5×10^5 CFU/mL was prepared from an overnight culture. In addition to the polyamino-isoprenic compounds, each plate contained PAßN, CCCP, CTAB, polymyxin-B and benzalkonium chloride as control molecules. Plates were incubated at 37°C under aerobic conditions for 18 hours. Plates were read at 600 nm on an Infinite M200 Pro plate reader (Tecan).
A series of 60 compounds, which were described [18], were tested at a concentration of 10 μM in combination with a sub-inhibitory concentration of doxycycline against the reference strain of P. aeruginosa PA01. In parallel, we evaluated the intrinsic antimicrobial activity of these compounds alone to allow the selection of only doxycycline adjuvants.
Series [13] concerns Enterobacteriaceae. Briefly: Same type of combination assay against Enterobacteriaceae (data not shown). The format is cell-based.

Where “and” joins values, the source holds several entries; their conditions need not be identical. Equal entries are not always repeated.

As to `CC(C)=CCCC(C)=CCCC(C)=CCNCCCN(CCCN)CCCN` [Compound 4], the IC50 worked out at 363 ± 20.3 µM in [1] and 136 ± 7.9 µM in [5]. The MIC in series [2] is 49 µg/mL and 125 µM; in series [3], 49 µg/mL and 125 µM; in [4], 49 µg/mL and 125 µM; in series [6], 49 µg/mL and 125 µM; in series [7], 25 µg/mL and 62.5 µM; in series [8], 49 µg/mL and 125 µM. In series [9], the “isolates with doxycycline susceptibility restored” value (shortened to “isolates”) is 88%.

With “polymyxin-B nonapeptide [PMBN, reference compound]”, in series [10], the “outer membrane permeation activity” value was 10%. The efflux inhibition result in series [11] (compound at 31.25μM) is recorded as “quite inefficient”; in [11] (compound at 125μM) it was 30%.

As for `CC(C)=CCCC(C)=CCNCCCNCCCCNCCCN` [Compound 1], the “cytotoxicity value compared with the positive control doxorubicin” value is 20 times in series [1] (Chinese hamster, 24 h) and 10 times in series [5] (human fibroblasts). Moreover, the figures for the IC50 in [1] and in series [5] were 808 ± 68.1 µM and 138 ± 18.6 µM, respectively. The MIC is > 85 µg/mL and > 250 µM in series [2]; 85 µg/mL and 250 µM in series [3]; 85 µg/mL and 250 µM in series [4]; > 85 µg/mL and > 250 µM in series [6]; > 85 µg/mL and > 250 µM in series [7]; 85 µg/mL and 250 µM in series [8]. Further, the “synergy with doxycycline in screening” value in [12] was “did not show any significant synergy”. Also, in series [9], the “isolates” value is 27%.

`CC(C)=CCCC(C)=CCNCCCN(CCCN)CCCN` [Compound 2] showed a 50% inhibitory concentration (IC50) in series [1] of 236 ± 28.9 µM. For the same compound, the MIC in [2] is > 81 µg/mL and > 250 µM; in series [3] it was > 81 µg/mL and > 250 µM; in [4] it was > 81 µg/mL and > 250 µM; in series [6], > 81 µg/mL and > 250 µM; in series [7], > 81 µg/mL and > 250 µM; in series [8] it was > 81 µg/mL and > 250 µM. In addition, the “rank of potency against Enterobacteriaceae” value in series [13] is listed as “the most potent”. Moreover, the “isolates” value in [9] is given as 6%.
